Source: PMC5539068, “Structural optimization and evaluation of novel 2-pyrrolidone-fused (2-oxoindolin-3-ylidene)methylpyrrole derivatives as potential VEGFR-2/PDGFRβ inhibitors” (Chemistry Central Journal, 2017)
“Also recorded” adds a separate entry of the source. Like-named read-outs stand apart in the source and are kept apart here.

Columns and labels:
NCI-H460 cells = test: Cell proliferation assay (MTT), NCI-H460; settings: for IC50: Homo sapiens, NCI-H460, 72 h, read-out: IC50 NCI-H460; for selective index (SI) NCI-H460: versus Detroit 551
Experimental: (§2) Serial dilutions of indicated compounds were added and incubated for additional 72 h. At the end of the incubation, cell viability was determined by the 3-(4,5-dimethylthiazol-2-yl)-2,5-diphenyl tetrazolium bromide (MTT) assay. The MTT formazan crystals formed were dissolved in DMSO, and the absorbance at 570 nm was recorded using a microplate spectrophotometer (Thermo Fisher Scientific, Waltham, MA, USA) [46].

PDGFRβ = PDGFRβ (Homo sapiens, UniProt P09619); test: In-vitro kinase assay (HotSpot, 33P), PDGFRβ
PDGFRβ, sequence (P09619 33-1106): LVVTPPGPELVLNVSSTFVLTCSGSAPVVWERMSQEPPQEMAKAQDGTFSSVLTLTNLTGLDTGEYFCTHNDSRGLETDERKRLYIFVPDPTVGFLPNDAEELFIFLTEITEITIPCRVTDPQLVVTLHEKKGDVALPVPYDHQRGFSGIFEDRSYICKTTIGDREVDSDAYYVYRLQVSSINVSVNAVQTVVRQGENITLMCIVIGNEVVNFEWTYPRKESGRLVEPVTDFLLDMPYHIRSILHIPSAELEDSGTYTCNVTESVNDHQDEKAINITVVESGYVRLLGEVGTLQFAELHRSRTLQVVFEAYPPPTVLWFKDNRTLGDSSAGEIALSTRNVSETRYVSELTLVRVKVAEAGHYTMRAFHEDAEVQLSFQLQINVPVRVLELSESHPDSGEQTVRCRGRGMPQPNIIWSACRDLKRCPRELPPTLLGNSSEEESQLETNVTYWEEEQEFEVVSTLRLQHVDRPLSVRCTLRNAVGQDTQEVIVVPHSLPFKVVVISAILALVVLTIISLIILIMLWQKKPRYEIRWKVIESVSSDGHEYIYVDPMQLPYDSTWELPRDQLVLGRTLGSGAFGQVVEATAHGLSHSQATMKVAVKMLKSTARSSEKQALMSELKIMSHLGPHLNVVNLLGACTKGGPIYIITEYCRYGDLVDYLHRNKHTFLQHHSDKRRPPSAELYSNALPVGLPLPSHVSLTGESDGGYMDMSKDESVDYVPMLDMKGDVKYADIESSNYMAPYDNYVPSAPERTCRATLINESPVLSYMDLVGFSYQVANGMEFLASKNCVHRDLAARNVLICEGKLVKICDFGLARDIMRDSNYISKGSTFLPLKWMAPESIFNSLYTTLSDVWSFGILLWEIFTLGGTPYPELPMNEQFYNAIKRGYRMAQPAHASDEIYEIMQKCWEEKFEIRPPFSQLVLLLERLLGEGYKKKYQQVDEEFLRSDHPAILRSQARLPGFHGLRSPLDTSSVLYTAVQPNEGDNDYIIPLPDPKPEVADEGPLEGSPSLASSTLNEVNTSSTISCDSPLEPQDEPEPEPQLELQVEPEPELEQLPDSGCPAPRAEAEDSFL

HCT116 cells [1] = test: Cell cycle analysis by image cytometry (DAPI); settings: 24 h, preliminary
Experimental: Cell cycle profiles of HCT116 cells were determined with an NC-3000 image cytometer (ChemoMetec, Allerod, Denmark) in accordance with manufacturer’s protocol. Briefly, cells were seeded at 200,000 cells/well on a 6-well plate for 24 h. […] After incubation for 24 h, 100,000 cells were harvested and centrifuged at 400 g at room temperature for 5 min, washed once with PBS (50 μM), and resuspended in lysis buffer (50 μl) (ChemoMetec, Allerod, Denmark) containing 10 μg/ml of 2-(4-amidinophenyl)-1H-indole-6-carboxamidine (DAPI, ChemoMetec, Allerod, Denmark). […] The cellular fluorescence was measured with an NC-3000 image cytometer using NC-SlideA8 (ChemoMetec, Allerod, Denmark). The NC-3000 software (ChemoMetec, Allerod, Denmark) was used for image acquisition, image analysis and quantification, and data visualization.

786-O cells = test: Cell proliferation assay (MTT), 786-O; settings: for IC50: Homo sapiens, 786-0, 72 h, read-out: IC50 786-O; for selective index (SI) 786-O: versus Detroit 551
Experimental: as §2

HUVEC cells = test: In-vitro VEGF-induced Matrigel tube formation assay; type: cell-based, human; settings: for IC50: Homo sapiens, HUVEC, VEGF 10 ng/ml, Matrigel, 6 h, read-out: IC50 Area (in vitro tube formation); for potency in inhibiting in vitro tube formation relative to sunitinib in terms of IC50: versus sunitinib
Experimental: The in vitro tube formation assay was assessed using ibidi μ-Slides (15-well, ibidi GmbH, Martinsried, Germany) in accordance with manufacturer’s protocol. Briefly, growth factor reduced Matrigel (10 μl) (Sigma, St. Louis MO) was added to the inner well of ibidi μ-Slides, and incubated at 37 °C for 1 h. […] 10,000 HUVEC cells in 50 μl of above growth medium was added to Matrigel (Sigma, St. Louis MO, USA) coated ibidi μ-Slides. After 6 h of incubation at 37 °C, the supernatant was discarded, and 50 μl of serum-free medium with diluted calcein AM (6.25 μg/ml) was added to above ibidi μ-Slides. After incubation in the dark at room temperature for 30 min, the μ-Slides were washed with PBS (50 μl) and fluorescence pictures were taken at 485 nm with a Leica DM1000 LED microscope (Leica Microsystems, Wetzlar, Hessen, Germany).

VEGFR-2 = VEGFR-2 (Homo sapiens, UniProt P35968); test: In-vitro kinase assay (HotSpot, 33P), VEGFR-2; settings: for inhibition at 0.08 µM: read-out: % inhibition of VEGFR-2 at 80 nM; for % inhibition of VEGFR-2 at 80 nM: 80 nM compound, ATP 10.0 μM
VEGFR-2, sequence (P35968 20-1356): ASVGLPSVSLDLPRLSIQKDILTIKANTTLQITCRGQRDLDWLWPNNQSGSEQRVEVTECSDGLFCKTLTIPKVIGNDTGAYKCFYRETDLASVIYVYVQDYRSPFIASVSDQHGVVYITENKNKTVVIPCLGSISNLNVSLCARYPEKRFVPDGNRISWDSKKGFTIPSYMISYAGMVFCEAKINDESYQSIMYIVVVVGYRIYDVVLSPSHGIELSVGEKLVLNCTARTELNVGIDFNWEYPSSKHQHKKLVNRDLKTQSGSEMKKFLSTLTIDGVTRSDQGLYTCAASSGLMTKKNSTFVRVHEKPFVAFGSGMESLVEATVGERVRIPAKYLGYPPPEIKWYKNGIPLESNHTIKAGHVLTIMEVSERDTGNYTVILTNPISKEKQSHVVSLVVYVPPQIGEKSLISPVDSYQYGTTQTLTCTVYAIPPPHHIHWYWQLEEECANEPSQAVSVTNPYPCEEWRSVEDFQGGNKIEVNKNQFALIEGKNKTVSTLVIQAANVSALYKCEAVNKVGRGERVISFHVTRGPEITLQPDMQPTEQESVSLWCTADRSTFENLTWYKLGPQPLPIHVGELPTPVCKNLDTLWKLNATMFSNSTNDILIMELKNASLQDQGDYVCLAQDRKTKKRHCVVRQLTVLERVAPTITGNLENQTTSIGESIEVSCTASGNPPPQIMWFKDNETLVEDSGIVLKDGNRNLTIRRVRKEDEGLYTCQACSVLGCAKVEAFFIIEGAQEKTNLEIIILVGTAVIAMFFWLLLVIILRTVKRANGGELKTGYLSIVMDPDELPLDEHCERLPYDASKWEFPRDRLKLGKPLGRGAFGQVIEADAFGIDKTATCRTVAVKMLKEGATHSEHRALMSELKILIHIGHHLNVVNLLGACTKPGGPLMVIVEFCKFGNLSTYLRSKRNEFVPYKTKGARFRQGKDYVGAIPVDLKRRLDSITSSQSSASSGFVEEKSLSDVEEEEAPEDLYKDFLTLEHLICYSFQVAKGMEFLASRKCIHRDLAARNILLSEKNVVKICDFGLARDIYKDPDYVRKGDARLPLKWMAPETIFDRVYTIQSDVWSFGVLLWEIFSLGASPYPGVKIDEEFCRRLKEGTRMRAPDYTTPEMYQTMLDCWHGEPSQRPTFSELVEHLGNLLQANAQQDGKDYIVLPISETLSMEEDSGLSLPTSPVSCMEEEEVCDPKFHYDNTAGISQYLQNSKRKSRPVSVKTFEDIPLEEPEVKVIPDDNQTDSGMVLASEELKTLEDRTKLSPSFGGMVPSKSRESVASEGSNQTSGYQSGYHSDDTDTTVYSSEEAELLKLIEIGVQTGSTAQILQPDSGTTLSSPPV
Experimental: Next, the VEGFR-2 phosphorylation inhibitory activities of the newly synthesized compounds were evaluated.
(§3) Briefly, specific kinase and substrate and required cofactors were prepared in reaction buffer. Test compounds were added to the reaction and after 20 min a mixture of ATP (Sigma, St. Louis MO, USA) and ^33P ATP (Perkin Elmer, Waltham MA, USA) was added to make a final concentration of 10.0 μM. Reactions were stood at room temperature for 120 min, and then the reactions were spotted onto a P81 ion exchange filter paper (Whatman Inc., Piscataway, NJ, USA). Unbound phosphate was removed by extensive washing of filters in 0.1% phosphoric acid. Kinase activity data was reported as the percent remaining kinase activity in test compounds compared to the solvent control dimethyl sulfoxide (DMSO).

HCT116 cells [2] = test: Cell proliferation assay (MTT), HCT116; settings: for IC50: Homo sapiens, HCT-116, 72 h, read-out: IC50 HCT116; for selective index (SI) HCT116: versus Detroit 551
Experimental: as §2

Aurora A = molecular target: T1, Aurora A (Homo sapiens, UniProt O14965); test: In-vitro kinase assay (HotSpot, 33P), Aurora A; settings: ATP 10.0 μM; for % inhibition of Aurora A at 1.0 μM: 1.0 μM compound; for inhibition at 1 µM: read-out: % inhibition of Aurora A at 1.0 μM, 1.0 μM compound
T1 sequence (O14965 1-403): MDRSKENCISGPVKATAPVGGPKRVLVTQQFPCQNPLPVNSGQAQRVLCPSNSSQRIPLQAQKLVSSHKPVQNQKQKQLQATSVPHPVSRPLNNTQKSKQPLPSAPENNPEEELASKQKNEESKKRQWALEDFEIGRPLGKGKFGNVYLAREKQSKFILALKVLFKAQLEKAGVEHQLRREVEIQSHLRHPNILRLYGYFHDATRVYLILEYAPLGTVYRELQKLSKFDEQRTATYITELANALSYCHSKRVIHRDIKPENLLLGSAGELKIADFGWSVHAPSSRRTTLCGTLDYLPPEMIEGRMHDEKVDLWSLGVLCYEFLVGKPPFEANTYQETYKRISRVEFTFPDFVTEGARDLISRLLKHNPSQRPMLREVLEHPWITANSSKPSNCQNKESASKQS
Experimental: as §3

Detroit 551 cells [3] = test: Cell proliferation assay (MTT), normal fibroblast Detroit 551; settings: Homo sapiens, Detroit 551, 72 h, read-out: IC50 Detroit 551
Experimental: as §2

HCT116 cells [4] = system: HCT116 cells
Experimental: (§1) Cells were seeded at 5000 cells/well on a 96-well plate for 24 h. The indicated compounds in different concentrations (100 μl) were added to cells. After 6 h, old medium was aspirated, and the cells were washed three times with PBS. WST-8 (Dojindo, Rockville, MD, USA) (10 µl) was added to each well, and the absorbance of the plate was recorded at 450 nm on a microplate spectrophotometer (Thermo Fisher Scientific, Waltham, MA, USA).

Detroit 551 cells [5] = system: Detroit 551 cells
Experimental: as §1

| IC50 (NCI-H460 cells) [µM] | melting point [°C] | IC50 (786-O cells) [µM] | inhibition at 0.08 µM (VEGFR-2) [%] | IC50 (HCT116 cells [2]) [µM] | SMILES | selective index (SI) NCI-H460 (NCI-H460 cells) | selective index (SI) HCT116 (HCT116 cells [2]) | IC50 (Detroit 551 cells [3]) [µM] | % inhibition of VEGFR-2 at 80 nM (VEGFR-2) | other results |
| --- | --- | --- | --- | --- | --- | --- | --- | --- | --- | --- |
| 6.37 ± 1.09 | 214 to 216 | 7.86 ± 0.3 | 41 | 3.06 ± 0.67 | CCN(CC)CCN1Cc2[nH]c(/C=C3\C(=O)Nc4ccc(OC)cc43)c(C)c2C1=O [Compound 13, (Z)-3-((5-(2-(diethylamino)ethyl)-3-methyl-4-oxo-1,4,5,6-tetrahydropyrrolo[3,4-b]pyrrol-2-yl)methylene)-5-methoxyindolin-2-one] | >1.57 | >3.27 | > 10 |  | IC50 (PDGFRβ): 0.0762 µM; cell cycle profile effect (HCT116 cells [1]; 3.0 μM): increase in polyploid cells; selective index (SI) 786-O (786-O cells): >1.27; IC50 (HUVEC cells): 0.74 ± 0.16 µM; potency in inhibiting in vitro tube formation relative to sunitinib in terms of IC50 (HUVEC cells): twofold higher; IC50 (VEGFR-2): 0.0478 µM; % inhibition of Aurora A at 1.0 μM (Aurora A): 92.9%; inhibition at 1 µM (Aurora A): 94.4% |
| > 10 | 252 to 255 | > 10 | 0 | > 10 | CCN(CC)CCN1Cc2[nH]c(/C=C3\C(=O)Nc4ccc(S(N)(=O)=O)cc43)c(C)c2C1=O [Compound 4, (Z)-3-((5-(2-(diethylamino)ethyl)-3-methyl-4-oxo-1,4,5,6-tetrahydropyrrolo[3,4-b]pyrrol-2-yl)methylene)-2-oxoindoline-5-sulfonamide] |  |  | > 10 | did not differ from that of the 1% DMSO (control) |  |
| > 10 | 245 to 247 | > 10 | 4 | > 10 | CCN(CC)CCN1Cc2[nH]c(/C=C3\C(=O)Nc4ccc(NS(C)(=O)=O)cc43)c(C)c2C1=O [Compound 10, (Z)-N-(3-((5-(2-(Diethylamino)ethyl)-3-methyl-4-oxo-1,4,5,6-tetrahydropyrrolo[3,4-b]pyrrol-2-yl)methylene)-2-oxoindolin-5-yl)methanesulfonamide] |  |  | > 10 |  |  |
| > 10 | 244 to 247 | > 10 | 20 | 8.98 ± 0.92 | CCN(CC)CCN1Cc2[nH]c(/C=C3\C(=O)Nc4ccc(S(=O)(=O)N(C)C)cc43)c(C)c2C1=O [Compound 5, (Z)-3-((5-(2-(diethylamino)ethyl)-3-methyl-4-oxo-1,4,5,6-tetrahydropyrrolo[3,4-b]pyrrol-2-yl)methylene)-N,N-dimethyl-2-oxoindoline-5-sulfonamide] |  | >1.11 | > 10 |  |  |
| 6.61 ± 0.8 | 229 to 230 | > 10 | 13 | > 10 | CCN(CC)CCN1Cc2[nH]c(/C=C3\C(=O)Nc4ccc([N+](=O)[O-])cc43)c(C)c2C1=O [Compound 12, (Z)-3-((5-(2-(diethylamino)ethyl)-3-methyl-4-oxo-1,4,5,6-tetrahydropyrrolo[3,4-b]pyrrol-2-yl)methylene)-5-nitroindolin-2-one] | >1.51 |  | > 10 |  |  |
| > 10 | 245 to 247 | > 10 | 0 | 4.2 ± 0.57 | CCN(CC)CCN1Cc2[nH]c(/C=C3\C(=O)Nc4ccc(S(=O)(=O)N(CC)CC)cc43)c(C)c2C1=O [Compound 6, (Z)-3-((5-(2-(diethylamino)ethyl)-3-methyl-4-oxo-1,4,5,6-tetrahydropyrrolo[3,4-b]pyrrol-2-yl)methylene)-N,N-diethyl-2-oxoindoline-5-sulfonamide] |  | >2.38 | > 10 |  |  |
| 7.51 ± 0.78 |  | 7.89 ± 0.6 |  | 4.6 ± 0.23 | CCN(CC)CCNC(=O)c1c(C)[nH]c(/C=C2\C(=O)Nc3ccc(F)cc32)c1C [Sunitinib, sunitinib, reference compound] |  |  | 9.48 ± 0.18 |  | cell cycle profile effect (HCT116 cells [1]; 5.0 μM): G0/G1 cell cycle arrest; IC50 (HUVEC cells): 1.54 ± 0.08 µM; acute cytotoxicity, HCT116 (HCT116 cells [4]): neither our compounds nor sunitinib had acute cytotoxicity; acute cytotoxicity, Detroit 551 (Detroit 551 cells [5]): neither our compounds nor sunitinib had acute cytotoxicity; inhibition at 1 µM (Aurora A): 50.7% |
| 7.22 ± 1.01 | 212 to 215 | 8.49 ± 0.46 | 0 | > 10 | CCN(CC)CCN1Cc2[nH]c(/C=C3\C(=O)Nc4ccc(C(F)(F)F)cc43)c(C)c2C1=O [Compound 11, (Z)-3-((5-(2-(Diethylamino)ethyl)-3-methyl-4-oxo-1,4,5,6-tetrahydropyrrolo[3,4-b]pyrrol-2-yl)methylene)-5-(trifluoromethyl)indolin-2-one] | >1.39 |  | > 10 | did not differ from that of the 1% DMSO (control); also recorded: no inhibitory activity | selective index (SI) 786-O (786-O cells): >1.18 |
| > 10 | 225 to 228 | > 10 | 15 | > 10 | CCN(CC)CCN1Cc2[nH]c(/C=C3\C(=O)Nc4ccc(S(=O)(=O)Nc5ccccc5)cc43)c(C)c2C1=O [Compound 8, (Z)-3-((5-(2-(Diethylamino)ethyl)-3-methyl-4-oxo-1,4,5,6-tetrahydropyrrolo[3,4-b]pyrrol-2-yl)methylene)-2-oxo-N-phenylindoline-5-sulfonamide] |  |  | > 10 | did not differ from that of the 1% DMSO (control) |  |
| > 10 | 231 to 234 | > 10 | 0 | > 10 | CCN(CC)CCN1Cc2[nH]c(/C=C3\C(=O)Nc4ccc(S(=O)(=O)Nc5ccc(C(F)(F)F)cc5)cc43)c(C)c2C1=O [Compound 9, (Z)-3-((5-(2-(Diethylamino)ethyl)-3-methyl-4-oxo-1,4,5,6-tetrahydropyrrolo[3,4-b]pyrrol-2-yl)methylene)-2-oxo-N-(4-(trifluoromethyl)phenyl)indoline-5-sulfonamide] |  |  | > 10 | did not differ from that of the 1% DMSO (control) |  |

| SMILES | IC50 (NCI-H460 cells) [µM] | melting point [°C] | IC50 (786-O cells) [µM] | inhibition at 0.08 µM (VEGFR-2) [%] | IC50 (HCT116 cells [2]) [µM] | selective index (SI) NCI-H460 (NCI-H460 cells) | selective index (SI) HCT116 (HCT116 cells [2]) | IC50 (Detroit 551 cells [3]) [µM] | % inhibition of VEGFR-2 at 80 nM (VEGFR-2) | other results |
| --- | --- | --- | --- | --- | --- | --- | --- | --- | --- | --- |
| CCN(CC)CCN1Cc2[nH]c(/C=C3\C(=O)Nc4ccc(S(=O)(=O)N(CCCl)CCCl)cc43)c(C)c2C1=O [Compound 7, (Z)-N,N-Bis(2-chloroethyl)-3-((5-(2-(diethylamino)ethyl)-3-methyl-4-oxo-1,4,5,6-tetrahydropyrrolo[3,4-b]pyrrol-2-yl)methylene)-2-oxoindoline-5-sulfonamide] | > 10 |  | > 10 | 46 | 3.65 ± 0.19 | <0.61 | 1.66 | 6.06 ± 0.4 |  | IC50 (PDGFRβ): 0.0632 µM; cell cycle profile effect (HCT116 cells [1]; 5.0 μM): increase in polyploid cells; selective index (SI) 786-O (786-O cells): <0.61; IC50 (HUVEC cells): 0.76 ± 0.11 µM; potency in inhibiting in vitro tube formation relative to sunitinib in terms of IC50 (HUVEC cells): twofold higher; IC50 (VEGFR-2): 0.0237 µM; acute cytotoxicity, HCT116 (HCT116 cells [4]; 10 μM, 6 h, WST-8): neither our compounds nor sunitinib had acute cytotoxicity; acute cytotoxicity, Detroit 551 (Detroit 551 cells [5]; 10 μM, 6 h, WST-8): neither our compounds nor sunitinib had acute cytotoxicity; % inhibition of Aurora A at 1.0 μM (Aurora A): 94.4%; inhibition at 1 µM (Aurora A): 92.9% |
